From patent EP1137645B1, “ALPHA-METHYLBENZYL-CONTAINING THIOUREA INHIBITORS OF HERPES VIRUSES CONTAINING A […] GROUP” (Wyeth, priority 1998, dated 2000)
Converted amounts (≈) assume the structure as drawn. Read-outs that look alike come from different tables or passages of the source.

How the values were obtained:
[1] = system: HCMV recombinant mutant virus whose genome contains the prokaryotic beta-glucuronidase gene; experiment: microbe, parasite or virus in culture; format: cell-based, human cytomegalovirus; details: Human betaherpesvirus 5, Fibroblast
Summary of the method: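 Human foreskin fibroblasts infected with HCMV recombinant carrying beta-glucuronidase under a viral promoter (e.g. RV145) in presence of compound. At 96 h post-infection, lysates assayed for beta-glucuronidase by colorimetric or fluorogenic substrate as replication readout; IC50 estimated from varying compound amounts.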

VZV strain Ellen = experiment: VZV antiviral (ELISA) assay; format: cell-based
Summary of the method: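 HFF cells infected with VZV Ellen at multiplicity below 0.1 overnight, then mixed infected/uninfected cells seeded with compound in DMEM/2% FBS and incubated three days at 37°C, 5% CO2.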

HSV- I = experiment: HSV antiviral (ELISA) assay; format: cell-based; details: read-out: IC50 (ug/ml) HSV
Summary of the method: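 Vero cells in DMEM with 2% FBS treated with compound 30 min before HSV-1 infection (MOI 0.006), then incubated ~24 h at 37°C. Viral replication measured by ELISA against glycoprotein D with β-galactosidase-linked secondary and fluorogenic substrate (ex 365/em 450 nm); IC50 relative to untreated fluorescence.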

[2] = read-out: IC50 ug/ml HCMV, HCMV, human foreskin fibroblasts
[3] = Human alphaherpesvirus 3, HFF, read-out: IC50 (ug/ml) VZV, VZV strain Ellen, HFF cells, ELISA
[4] = Human alphaherpesvirus 3, VZV strain Ellen, HFF cells, ELISA, read-out: IC50 (ug/ml) VZV

Compound | IC50 [1, 2] | IC50 (VZV strain Ellen; Human alphaherpesvirus 3, HFF, read-out: IC50 (ug/ml) VZV) | IC50 (HSV- I; HSV- I, Vero cells, ELISA) | IC50 (VZV strain Ellen; [3]) | IC50 (HSV- I; Vero) | IC50 ([1]; read-out: IC50 ug/ml HCMV) | IC50 (VZV strain Ellen; [4])
CC(NC(=S)Nc1ccc(NC(=O)c2cccc3cccnc23)cc1)c1ccc(F)cc1 (stereo not drawn) [Example 991, Quinoline-8-carboxylic acid (4-{3-[1-(4-fluoro-phenyl)-ethyl]-thioureido}-phenyl)-amide] | 7.4 µg/mL (≈ 16.6 µM) | 0.1 µg/mL (≈ 0.225 µM) | > 10 µg/mL | – | – | – | –
CC(C)COc1ccc(NC(=S)Nc2ccc(NC(=O)c3ccccc3F)cc2)cc1Cl [Example 994, N-{4-[3-(3-Chloro-4-isobutoxy-phenyl)-thioureido]-phenyl}-2-fluoro-benzamide] | > 10 µg/mL | – | – | > 10 µg/mL | > 10 µg/mL | – | –
COc1ccc(NC(=S)Nc2ccc(NC(=O)c3ccccc3F)cc2)cc1F [Example 995, 2-Fluoro-N-{4-[3-(3-fluoro-4-methoxy-phenyl)-thioureido]-phenyl}-benzamide] | – | – | > 10 µg/mL | – | – | > 10 µg/mL | > 10 µg/mL
COCCOc1ccc(NC(=S)Nc2ccc(NC(=O)c3ccccc3F)cc2)cc1Cl [Example 996, N-(4-{3-[3-Chloro-4-(2-methoxy-ethoxy)-phenyl]-thioureido}-phenyl)-2-fluoro-benzamide] | > 10 µg/mL | – | – | 10 µg/mL (≈ 21.1 µM) | > 10 µg/mL | – | –
Cc1ccc(NC(=S)Nc2ccc(NC(=O)c3ccccc3F)cc2)cc1F [Example 997, 2-Fluoro-N-{4-[3-(3-fluoro-4-methyl-phenyl)-thioureido]-phenyl}-benzamide] | – | – | 1.9 µg/mL (≈ 4.78 µM) | – | – | 4 µg/mL (≈ 10.1 µM) | > 10 µg/mL
COc1ccc(NC(=S)Nc2ccc(NC(=O)c3ccccc3F)cc2)cc1C(F)(F)F [Example 998, 2-Fluoro-N-{4-[3-(4-methoxy-3-trifluoromethyl-phenyl)-thioureido]-phenyl}-benzamide] | – | – | 3 µg/mL (≈ 6.47 µM) | – | – | > 10 µg/mL | 5 µg/mL (≈ 10.8 µM)
Nc1ccc(C(F)(F)F)cc1NC(=S)Nc1ccc(NC(=O)c2ccccc2F)cc1 [Example 999, N-{4-[3-(2-Amino-5-trifluoromethyl-phenyl)-thioureido]-phenyl}-2-fluoro-benzamide] | – | – | 2.2 µg/mL (≈ 4.91 µM) | – | – | 4 µg/mL (≈ 8.92 µM) | 9.4 µg/mL (≈ 21 µM)
COc1ccc(C(C)NC(=S)Nc2ccc(NC(=O)c3ccccc3F)cc2)cc1Cl (stereo not drawn) [Example 1000, N-(4-{3-[1-(3-Chloro-4-methoxy-phenyl)-ethyl]-thioureido}-phenyl)-2-fluoro-benzamide] | 2 µg/mL (≈ 4.37 µM) | – | – | 6 µg/mL (≈ 13.1 µM) | > 10 µg/mL | – | –
O=C(Nc1ccc(NC(=S)Nc2cc(Cl)ccc2O)cc1)c1ccccc1F [Example 1001, N-{4-[3-(5-Chloro-2-hydroxy-phenyl)-thioureido]-phenyl}-2-fluoro-benzamide] | 2.6 µg/mL (≈ 6.25 µM) | – | – | 3.6 µg/mL (≈ 8.66 µM) | 4.3 µg/mL (≈ 10.3 µM) | – | –
CC(NC(=S)Nc1ccc(NC(=O)c2ccccc2F)cc1)c1cc2ccccc2o1 (stereo not drawn) [Example 1002, N-{4-[3-(1-Benzofuran-2-yl-ethyl)-thioureido]-phenyl}-2-fluoro-benzamide] | 2.1 µg/mL (≈ 4.84 µM) | – | – | 0.08 µg/mL (≈ 0.185 µM) | > 10 µg/mL | – | –
Cc1ccc(NC(=S)Nc2ccc(NC(=O)c3ccccc3F)cc2)cc1C(F)(F)F [Example 1003, 2-Fluoro-N-{4-[3-(4-methyl-3-trifluoromethyl-phenyl)-thioureido]-phenyl}-benzamide] | – | – | > 10 µg/mL | – | – | > 10 µg/mL | > 10 µg/mL
C[C@H](NC(=S)Nc1ccc(NC(=O)c2ccccc2F)cc1)c1ccc(Br)cc1 [Example 1004, (S)-N-(4-{3-[1-(4-Bromo-phenyl)-ethyl]-thioureido}-phenyl)-2-fluoro-benzamide] | 4.2 µg/mL (≈ 8.89 µM) | – | – | 0.06 µg/mL (≈ 0.127 µM) | > 10 µg/mL | – | –
COc1cc(OCC(F)(F)F)ccc1NC(=S)Nc1ccc(NC(=O)c2ccccc2F)cc1 [Example 1006, 2-Fluoro-N-(4-{3-[2-methoxy-4-(2,2,2-trifluoro-ethoxy)-phenyl]-thioureido}-phenyl)-benzamide] | – | – | 8.3 µg/mL (≈ 16.8 µM) | – | – | 8.9 µg/mL (≈ 18 µM) | 11 µg/mL (≈ 22.3 µM)
Nc1ccc(F)cc1NC(=S)Nc1ccc(NC(=O)c2ccccc2F)cc1 [Example 1007, N-{4-[3-(2-Amino-5-fluoro-phenyl)-thioureido]-phenyl}-2-fluoro-benzamide] | – | – | 1.2 µg/mL (≈ 3.01 µM) | – | – | > 10 µg/mL | > 10 µg/mL
CC(NC(=S)Nc1ccc(NC(=O)c2ccccc2F)cc1)c1ccc(S(=O)(=O)N(C)C)cc1 (stereo not drawn) [Example 1008, N-(4-{3-[1-(4-Dimethylsulfamoyl-phenyl)-ethyl]-thioureido}-phenyl)-2-fluoro-benzamide] | 8.5 µg/mL (≈ 17 µM) | – | – | > 10 µg/mL | > 10 µg/mL | – | –
CC(NC(=S)Nc1ccc(NC(=O)c2ccccc2F)cc1)c1ccc(S(=O)(=O)N2CCCCC2)cc1 (stereo not drawn) [Example 1009, 2-Fluoro-N-[4-(3-{1-[4-(piperidine-1-sulfonyl)-phenyl]-ethyl}-thioureido)-phenyl]-benzamide] | > 10 µg/mL | – | – | > 10 µg/mL | > 10 µg/mL | – | –
O=C(Nc1ccc(NC(=S)Nc2ccc(OCC(F)(F)F)cc2OCC(F)(F)F)cc1)c1ccccc1F [Example 1010, N-(4-{3-[2,4-Bis-(2,2,2-trifluoro-ethoxy)-phenyl]-thioureido}-phenyl)-2-fluoro-benzamide] | – | – | > 10 µg/mL | – | – | > 10 µg/mL | > 10 µg/mL
Cc1ccc([C@H](C)NC(=S)Nc2ccc(NC(=O)c3ccccc3F)cc2)cc1 [Example 1011, 2-Fluoro-N-{4-[3-((1S)-1-p-tolyl-ethyl)-thioureido]-phenyl}-benzamide] | 6.8 µg/mL (≈ 16.7 µM) | – | – | 0.55 µg/mL (≈ 1.35 µM) | > 10 µg/mL | – | –
Cc1ccc([C@@H](C)NC(=S)Nc2ccc(NC(=O)c3ccccc3F)cc2)cc1 [Example 1012, 2-Fluoro-N-{4-[3-((1R)-1-p-tolyl-ethyl)-thioureido]-phenyl}-benzamide] | 7.1 µg/mL (≈ 17.4 µM) | – | – | > 7.5 µg/mL | > 10 µg/mL | – | –
C[C@H](NC(=S)Nc1ccc(NC(=O)c2ccccc2F)cc1)c1ccccc1 [Example 1013, 2-Fluoro-N-{4-[3-((1S)-1-phenyl-ethyl)-thioureido]-phenyl}-benzamide] | – | – | > 10 µg/mL | – | – | 8.2 µg/mL (≈ 20.8 µM) | 0.27 µg/mL (≈ 0.686 µM)
C[C@@H](NC(=S)Nc1ccc(NC(=O)c2ccccc2F)cc1)c1ccc(Cl)cc1 [Example 1014, N-(4-{3-[(1R)-1-(4-Chloro-phenyl)-ethyl]-thioureido}-phenyl)-2-fluoro-benzamide] | 2.9 µg/mL (≈ 6.78 µM) | – | – | > 7.5 µg/mL | > 10 µg/mL | – | –
C[C@H](NC(=S)Nc1ccc(NC(=O)c2ccccc2F)cc1)c1ccc(Cl)cc1 [Example 1015, N-(4-{3-[(1S)-1-(4-Chloro-phenyl)-ethyl]-thioureido}-phenyl)-2-fluoro-benzamide] | 2.5 µg/mL (≈ 5.84 µM) | – | – | 0.03 µg/mL (≈ 0.0701 µM) | > 10 µg/mL | – | –
C[C@@H](NC(=S)Nc1ccc(NC(=O)c2ccccc2F)cc1)c1ccccc1 [Example 1016, 2-Fluoro-N-{4-[3-((1R)-1-phenyl-ethyl)-thioureido]-phenyl}-benzamide] | – | – | > 10 µg/mL | – | – | 6.4 µg/mL (≈ 16.3 µM) | > 7.5 µg/mL
COc1ccccc1C(=O)Nc1ccc(NC(=S)NC(C)c2ccc(C#N)cc2)cc1 (stereo not drawn) [Example 1017, N-(4-{3-[1-(4-Cyano-phenyl}-ethyl]-thioureido}-phenyl)-2-methoxy-benzamide] | > 10 µg/mL | – | – | 0.3 µg/mL (≈ 0.697 µM) | > 10 µg/mL | – | –
COc1ccccc1C(=O)Nc1ccc(NC(=S)NC(C)c2cc3ccccc3o2)cc1 (stereo not drawn) [Example 1018, N-{4-[3-(1-Benzofuran-2-yl-ethyl)-thioureido]-phenyl}-2-methoxy-benzamide] | > 10 µg/mL | – | – | 0.09 µg/mL (≈ 0.202 µM) | > 10 µg/mL | – | –
